According to patent US5273991A, “Imidazole-containing compositions and methods of use thereof analogs of distamycin” (Research Corporation Technologies, Inc., priority 1992, dated 1993):

How the values were obtained:
[1] = test system: DNAs [calf thymus, poly(dA dT) and poly(dG dC)]; assay: circular dichroism (CD) titration, DNAs together; format: binding; conditions: drugs alone do not exhibit any CD spectra
Method: The DNA binding properties of the present compounds were assessed by circular dichroism (CD) titration experiments. Methods for CD titration can be found, for example, in Zimmer et al. (1986) Prog. Biophys. Molec. Biol 47, 31. The conformation of DNA can be readily determined by CD experiments, and for B-DNA, characteristic positive and negative Cotton effects are observed at 260 and 245 nm, respectively.
The interaction of Compounds 6-10 to a number of DNAs [calf thymus, poly(dA dT) and poly(dG dC)] were analyzed by CD titration studies. All the CD titration experiments were performed using identical procedures, concentrations of DNA, and increments of drug:DNA ratios (or `r`, i.e. moles of drug to moles of DNA base pairs). Therefore, the differences observed in the CD spectra for the titration of each of the compounds to the polydeoxynucleotides may be directly compared to reflect their DNA binding properties.
All experiments were performed with a continuous flow of nitrogen purging the polarimeter. A 1 mm path length jacketed cell was used and all experiments were done at room temperature. Initially, DNA [0.02 μ moles (base pairs), 130 μL] was placed in the cell and the spectrum of the DNA alone was collected. Aliquots of drug were added and the spectra collected. The drug solutions were 1 mM and amounts of the drug added correspond to a drug to base pair ratio of 0.05, 0.10, 0.15, 0.20, 0.25, 0.30, 0.40, 0.50, 0.60, 0.80, 1.00. The scan parameters were set and standard for all experiments. The spectra were collected from 400 nm to 200 nm. The sensitivity was set at 1 mdeg and the scan speed was set at 20 nm per minute. Three scans were accumulated and automatically averaged by the computer. The λmax and ellipticity (mdeg) for each spectrum were collected from the raw scans and the final plots were smoothed by the noise reduction program on the computer. […] The induced CD band is presumably due to the uv absorption π to π^* transition of the drug in the drug:DNA complex. […] Therefore interaction of these drugs with DNA causes only minor conformational changes in the double helix.

SF-295 = assay: NCI cytotoxicity screen (SRB); format: cell-based, human
Method: (§1) Compounds 6, 7, 9 and 10 were tested for cytotoxic properties by the National Cancer Institute, Bethesda, Md. The anticancer drug screen utilized a panel of 60 human tumor cell lines organized into subpanels representing leukemia, melanoma, and cancers of the lung, colon, kidney, ovary and central nervous system and is described by Monks et al. (1991) Journal of the National Cancer Institute 83, 757, which is incorporated herein by reference.
(§2) Cell lines were inoculated onto microtiter plates and preincubated for 24-28 hours. 100 μL aliquots of each compound were added to the appropriate microtiter plate wells in each of five 10-fold dilutions starting from a maximum concentration of 10^-4 M in water or DMSO. Cultures were then incubated for an additional 48 hours. Cells were then fixed in situ, followed by staining with sulforhodamine B (SRB), which binds to basic amino acids of cellular macromolecules. The solubilized stain was measured spectrophotometrically to determine relative cell growth or viability in treated and untreated cells. The monoimidazole analogs of Compounds 6, 7, 9 and 10 and the formamido analog corresponding to Compounds 7 and 10 are devoid of activity against the panel of cancer cell lines in Table III.

K-562 = assay: NCI cytotoxicity screen (SRB); format: cell-based, human
Method: as §1, §2

DMS-114 = assay: NCI cytotoxicity screen (SRB); format: cell-based, human
Method: as §1, §2

Molt-4 = assay: NCI cytotoxicity screen (SRB); format: cell-based, human
Method: as §1, §2

HCT-15 = assay: NCI cytotoxicity screen (SRB); format: cell-based, human
Method: as §1, §2

SW-620 = assay: NCI cytotoxicity screen (SRB); format: cell-based, human
Method: as §1, §2

KM12 = assay: NCI cytotoxicity screen (SRB); format: cell-based, human
Method: as §1, §2

NCI-H322M = assay: NCI cytotoxicity screen (SRB); format: cell-based, human
Method: as §1, §2

DMS-273 = assay: NCI cytotoxicity screen (SRB); format: cell-based, human; conditions: DMS-273; subsequent test date
Method: as §1, §2

SF-268 = assay: NCI cytotoxicity screen (SRB); format: cell-based, human
Method: as §1, §2

NCI-H460 = assay: NCI cytotoxicity screen (SRB); format: cell-based, human
Method: as §1, §2

HT29 = assay: NCI cytotoxicity screen (SRB); format: cell-based, human
Method: as §1, §2

HOP-62 = assay: NCI cytotoxicity screen (SRB); format: cell-based, human
Method: as §1, §2

SF-539 = assay: NCI cytotoxicity screen (SRB); format: cell-based, human
Method: as §1, §2

XF498 = assay: NCI cytotoxicity screen (SRB); format: cell-based, human
Method: as §1, §2

NCI-H23 = assay: NCI cytotoxicity screen (SRB); format: cell-based, human
Method: as §1, §2

NCI-H522 = assay: NCI cytotoxicity screen (SRB); format: cell-based, human
Method: as §1, §2

KM20L2 = assay: NCI cytotoxicity screen (SRB); format: cell-based, human
Method: as §1, §2

EKVX = assay: NCI cytotoxicity screen (SRB); format: cell-based, human
Method: as §1, §2

MALME-3M = assay: NCI cytotoxicity screen (SRB); format: cell-based, human
Method: as §1, §2

HCC-2998 = assay: NCI cytotoxicity screen (SRB); format: cell-based, human
Method: as §1, §2

[2] = 48 h, Non-Small Cell Lung Cancer NCI-H322M
[3] = NCI-H322M, subsequent test date
[4] = 48 h, Non-Small Cell Lung Cancer NCI-H460
[5] = 48 h, Non-Small Cell Lung Cancer HOP-62
[6] = 48 h, Non-Small Cell Lung Cancer NCI-H23
[7] = 48 h, Non-Small Cell Lung Cancer NCI-H522
[8] = 48 h, Non-Small Cell Lung Cancer EKVX

CN(C)CCNC(=O)c1nc(NC(=O)c2nc(NC(=O)c3ccc(N(CCCl)CCCl)cc3)cn2C)cn1C [Compound 6, N-(N',N'-dimethylaminoethyl)-1-methyl-4-{4-[4,4-bis(2-chloroethyl)aminobenzamido]-1-methylimidazole-2-carboxamido}imidazole-2-carboxamide]
drug-induced CD bands, wavelength [1]: 290-340 nm
IC50 (SF-295; 48 h, CNS Cancer SF-295): 43.6 µM
IC50 (SF-295; SF-295, subsequent test date): 33.2 µM
IC50 (K-562; 48 h, Leukemia K-562): 17.2 µM
IC50 (K-562; K-562, subsequent test date): 12.3 µM
IC50 (DMS-114; 48 h, Small Cell Lung Cancer DMS-114): 5.83 µM
IC50 (DMS-114; DMS-114, subsequent test date): 4.99 µM
IC50 (Molt-4; 48 h, Leukemia Molt-4): 18.1 µM
IC50 (Molt-4; Molt-4, subsequent test date): > 100 µM
IC50 (HCT-15; 48 h, Colon Cancer HCT-15): 40.5 µM
IC50 (HCT-15; HCT-15, subsequent test date): 43.2 µM
IC50 (SW-620; 48 h, Colon Cancer SW-620): 9.95 µM
IC50 (SW-620; SW-620, subsequent test date): 12 µM
IC50 (KM12; 48 h, Colon Cancer KM12): 47 µM
IC50 (KM12; KM12, subsequent test date): 31.6 µM
IC50 (NCI-H322M; [2]): 40.5 µM
IC50 (NCI-H322M; [3]): 51.7 µM
IC50 (DMS-273): 31.3 µM
IC50 (SF-268; 48 h, CNS Cancer SF-268): 50 µM
IC50 (SF-268; SF-268, subsequent test date): 9.21 µM
IC50 (NCI-H460; [4]): 46.1 µM
IC50 (NCI-H460; NCI-H460, subsequent test date): 35.1 µM
IC50 (HT29; 48 h, Colon Cancer HT29): 5.9 µM
IC50 (HT29; HT29, subsequent test date): 27.4 µM
IC50 (HOP-62; [5]): 52.3 µM
IC50 (HOP-62; HOP-62, subsequent test date): 50.6 µM
IC50 (SF-539; 48 h, CNS Cancer SF-539): 6.97 µM
IC50 (SF-539; SF-539, subsequent test date): 57.3 µM
IC50 (XF498; XF498, subsequent test date): 25.2 µM
IC50 (NCI-H23; [6]): 47.1 µM
IC50 (NCI-H23; NCI-H23, subsequent test date): 43.6 µM
IC50 (NCI-H522; [7]): 6.98 µM
IC50 (NCI-H522; NCI-H522, subsequent test date): 5.74 µM
IC50 (KM20L2; 48 h, Colon Cancer KM20L2): 6.77 µM
IC50 (KM20L2; KM20L2, subsequent test date): 20.1 µM
IC50 (EKVX; [8]): 47.5 µM
IC50 (EKVX; EKVX, subsequent test date): 38 µM
IC50 (MALME-3M; 48 h, Melanoma MALME-3M): 6.14 µM
IC50 (MALME-3M; MALME-3M, subsequent test date): 64.3 µM
IC50 (HCC-2998; 48 h, Colon Cancer HCC-2998): 33.7 µM
IC50 (HCC-2998; HCC-2998, subsequent test date): 8.14 µM

CN(C)CCNC(=O)c1nc(NC(=O)c2nc(NC(=O)c3nc(NC(=O)c4ccc(N(CCCl)CCCl)cc4)cn3C)cn2C)cn1C [Compound 7, N-(N',N'-dimethylaminoethyl)-1-methyl-4-{1-methyl-4-[4-(4,4-bis-(2-chloroethyl)aminobenzamido)-1-methylimidazole-2-carboxamido]imidazole-2-carboxamido}imidazole-2-carboxamide]
drug-induced CD bands, wavelength [1]: 290-340 nm
IC50 (SF-295; 48 h, CNS Cancer SF-295): 4.1 µM
IC50 (K-562; 48 h, Leukemia K-562): 0.58 µM
IC50 (DMS-114; DMS-114, subsequent test date): 0.54 µM
IC50 (Molt-4; 48 h, Leukemia Molt-4): 0.98 µM
IC50 (HCT-15; 48 h, Colon Cancer HCT-15): > 10 µM
IC50 (HCT-15; HCT-15, subsequent test date): > 100 µM
IC50 (SW-620; 48 h, Colon Cancer SW-620): 0.79 µM
IC50 (SW-620; SW-620, subsequent test date): 0.63 µM
IC50 (KM12; 48 h, Colon Cancer KM12): 0.96 µM
IC50 (KM12; KM12, subsequent test date): 0.75 µM
IC50 (NCI-H322M; [2]): 2.39 µM
IC50 (NCI-H322M; [3]): 1.97 µM
IC50 (DMS-273): 0.99 µM
IC50 (SF-268; 48 h, CNS Cancer SF-268): 0.77 µM
IC50 (NCI-H460; [4]): 5.67 µM
IC50 (NCI-H460; NCI-H460, subsequent test date): 4.12 µM
IC50 (HT29; 48 h, Colon Cancer HT29): 2.3 µM
IC50 (HT29; HT29, subsequent test date): 1.97 µM
IC50 (HOP-62; [5]): 1.17 µM
IC50 (SF-539; SF-539, subsequent test date): 0.59 µM
IC50 (XF498; 48 h, CNS Cancer XF498): 0.62 µM
IC50 (XF498; XF498, subsequent test date): 0.65 µM
IC50 (NCI-H23; [6]): 0.96 µM
IC50 (NCI-H23; NCI-H23, subsequent test date): 2.35 µM
IC50 (NCI-H522; [7]): 4.41 µM
IC50 (NCI-H522; NCI-H522, subsequent test date): 0.42 µM
IC50 (KM20L2; 48 h, Colon Cancer KM20L2): 7.92 µM
IC50 (EKVX; [8]): 0.88 µM
IC50 (EKVX; EKVX, subsequent test date): 1.7 µM
IC50 (MALME-3M; 48 h, Melanoma MALME-3M): 2.63 µM
IC50 (MALME-3M; MALME-3M, subsequent test date): 4.34 µM
IC50 (HCC-2998; 48 h, Colon Cancer HCC-2998): 0.68 µM
IC50 (HCC-2998; HCC-2998, subsequent test date): 0.89 µM
